The text below walks through data of article PMC7177897, “Benzylaminoethyureido-Tailed Benzenesulfonamides: Design, Synthesis, Kinetic and X-ray Investigations on Human Carbonic Anhydrases” (International Journal of Molecular Sciences, 2020).

The target in assay [1] is T1, hCA II (Homo sapiens, UniProt P00918).
T1 construct: gene CA2; recombinant, made by the authors as in earlier publications; cytosolic isoform
Kind of assay: stopped-flow CO2 hydration assay. Type of assay: biochemical. The source says: stopped-flow CO2 hydration assay on hCA II

In assay [2] the target is T2, hCA XII (Homo sapiens, UniProt O43570).
T2 construct: gene CA12; recombinant, made by the authors as in earlier publications
The experiment in a line: stopped-flow CO2 hydration assay. It counts as biochemical. The source says: stopped-flow CO2 hydration assay on hCA XII

Assay [3] addresses T3, hCA IX (Homo sapiens, UniProt Q16790).
T3 construct: gene CA9; recombinant, made by the authors as in earlier publications
The experiment in a line: stopped-flow CO2 hydration assay. It counts as biochemical. An excerpt: stopped-flow CO2 hydration assay on hCA IX

The target of assay [4] is T4, hCA I (Homo sapiens, UniProt P00915).
T4 construct: gene CA1; crystals from hCA I purchased from Sigma-Aldrich, residues 4-260 visible, two monomers per asymmetric unit
The experiment in a line: stopped-flow CO2 hydration assay. It counts as biochemical. The source says:
stopped-flow CO2 hydration assay on hCA I

Assay [5] can be described thus: stopped-flow CO2 hydration assay. It counts as biochemical, Homo sapiens. Conditions: read-out: hCA I.

A value given as a limit tells only on which side of the number the result lay.

T4 sequence (P00915 2-261): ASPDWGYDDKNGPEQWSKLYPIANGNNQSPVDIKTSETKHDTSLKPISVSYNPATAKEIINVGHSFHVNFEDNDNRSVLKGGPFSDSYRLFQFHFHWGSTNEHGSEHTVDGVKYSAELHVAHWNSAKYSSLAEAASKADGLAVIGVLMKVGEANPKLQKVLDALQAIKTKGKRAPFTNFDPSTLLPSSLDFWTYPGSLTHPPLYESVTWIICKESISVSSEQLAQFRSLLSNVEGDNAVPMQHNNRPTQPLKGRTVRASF
T2 sequence (O43570 25-354 limits assumed): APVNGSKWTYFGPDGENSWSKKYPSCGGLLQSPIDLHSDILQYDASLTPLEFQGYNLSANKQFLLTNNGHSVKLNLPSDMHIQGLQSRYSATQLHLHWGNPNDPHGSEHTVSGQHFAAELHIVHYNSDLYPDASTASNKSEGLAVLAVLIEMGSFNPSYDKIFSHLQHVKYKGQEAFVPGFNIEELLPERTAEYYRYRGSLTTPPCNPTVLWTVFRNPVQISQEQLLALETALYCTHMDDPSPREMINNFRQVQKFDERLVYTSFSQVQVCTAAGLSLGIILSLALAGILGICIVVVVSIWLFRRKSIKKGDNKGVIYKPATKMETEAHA

As for `NS(=O)(=O)c1ccc(NC(=O)NCCNCc2ccccc2)cc1` [compound 16, 4-(3-(2-(benzylamino)ethyl)ureido) benzenesulfonamide], the Ki in assay [1] was found to be 350 nM; in assay [2], 54.5 nM; in assay [3] it was 1350 nM; in assay [4] it was 552 nM.
Take `NS(=O)(=O)c1ccc(NC(=O)NCCNCc2ccc(Cl)cc2)cc1` [compound 17, 4-(3-(2-((4-chlorobenzyl)amino)ethyl)ureido) benzenesulfonamide]: the Ki in assay [1] came to 127 nM; in assay [2], 32 nM; in assay [3] it was 458 nM; in assay [4], 582 nM.
For `NS(=O)(=O)c1ccc(NC(=O)NCCNCc2ccc(F)cc2)cc1` [compound 18, 4-(3-(2-((4-fluorobenzyl)amino)ethyl)ureido) benzenesulfonamide], the Ki in assay [1] is 9.2 nM; in assay [2], 53.2 nM; in assay [3] it was 30.1 nM; in assay [4], 725 nM.
As to `NS(=O)(=O)c1ccc(NC(=O)NCCNCc2ccccc2F)cc1` [compound 19, 4-(3-(2-((2-fluorobenzyl)amino)ethyl)ureido) benzenesulfonamide], the Ki came out at 3.9 nM in assay [1], 58.3 nM in assay [2], 20.3 nM in assay [3] and 24.6 nM in assay [4].
As for `NS(=O)(=O)c1ccc(NC(=O)NCCNCc2ccc(O)cc2)cc1` [compound 20, 4-(3-(2-((4-hydroxybenzyl)amino)ethyl)ureido) benzenesulfonamide], the Ki is 267 nM in assay [1], 75.8 nM in assay [2], 974 nM in assay [3] and 781 nM in assay [4].
`NS(=O)(=O)c1ccc(NC(=O)NCCNCc2ccc([N+](=O)[O-])cc2)cc1` [compound 21, 4-(3-(2-((4-nitrobenzyl)amino)ethyl)ureido) benzenesulfonamide]: the Ki in assay [1] was 96.1 nM; in assay [2], 77.5 nM; in assay [3], 317 nM; in assay [4], 527 nM.
In the same order, the values of `CN(C)c1ccc(CNCCNC(=O)Nc2ccc(S(N)(=O)=O)cc2)cc1` [compound 22, 4-(3-(2-((4-(dimethylamino)benzyl)amino)ethyl)ureido) benzenesulfonamide] are 73.2 nM, 264 nM, 343 nM and 1510 nM.
On to `COc1cc([N+](=O)[O-])ccc1CNCCNC(=O)Nc1ccc(S(N)(=O)=O)cc1` [compound 23, 4-(3-(2-((2-methoxy-4-nitrobenzyl)amino)ethyl)ureido)benzenesulfonamide], for which the Ki in assay [1] was found to be 82.4 nM; in assay [2], 53.6 nM; in assay [3], 291 nM; in assay [4] it was 788 nM.
As to `NS(=O)(=O)c1ccc(NC(=O)NCCNCc2ccc(Br)cc2O)cc1` [compound 24, 4-(3-(2-((4-bromo-2-hydroxybenzyl)amino)ethyl)ureido) benzenesulfonamide], the Ki came to 5.3 nM in assay [1], 97.6 nM in assay [2], 116 nM in assay [3] and 138 nM in assay [4].
For `NS(=O)(=O)c1ccc(NC(=O)NCCNCc2ccc(-c3ccccc3)cc2)cc1` [compound 25, 4-(3-(2-(([1,1′-biphenyl]-4-ylmethyl)amino)ethyl)ureido) benzenesulfonamide], the Ki in assay [1] worked out at 63.2 nM; in assay [2] it was 63.7 nM; in assay [3], 1150 nM; in assay [4], 782 nM.
For `NS(=O)(=O)c1cccc(NC(=O)NCCNCc2ccccc2)c1` [compound 26, 3-(3-(2-(benzylamino)ethyl)ureido)benzenesulfonamide], the Ki was 76.3 nM in assay [1], 772 nM in assay [2], greater than 10000 nM in assay [3] and 928 nM in assay [4].
As for `NS(=O)(=O)c1cccc(NC(=O)NCCNCc2ccc(Cl)cc2)c1` [compound 27, 3-(3-(2-((4-chlorobenzyl)amino)ethyl)ureido) benzenesulfonamide], the Ki in assay [1] was 36.9 nM; in assay [2] it was 228 nM; in assay [3], 3380 nM; in assay [4], 702 nM.
For `NS(=O)(=O)c1cccc(NC(=O)NCCNCc2ccc(F)cc2)c1` [compound 28, 3-(3-(2-((4-fluorobenzyl)amino)ethyl)ureido) benzenesulfonamide], the Ki in assay [1] was determined as 53.8 nM; in assay [2] it was 71.3 nM; in assay [3] it was 4210 nM; in assay [4] it was 868 nM.
`NS(=O)(=O)c1cccc(NC(=O)NCCNCc2ccccc2F)c1` [compound 29, 3-(3-(2-((2-fluorobenzyl)amino)ethyl)ureido) benzenesulfonamide]: the Ki in assay [1] was 33.4 nM; in assay [2] it was 479 nM; in assay [3], greater than 10000 nM; in assay [4], 728 nM.
In the case of `NS(=O)(=O)c1cccc(NC(=O)NCCNCc2ccc(O)cc2)c1` [compound 30, 3-(3-(2-((4-hydroxybenzyl)amino)ethyl)ureido) benzenesulfonamide], the Ki was found to be 166 nM in assay [1], 317 nM in assay [2], 3510 nM in assay [3] and 6250 nM in assay [4].
Regarding `NS(=O)(=O)c1cccc(NC(=O)NCCNCc2ccc([N+](=O)[O-])cc2)c1` [compound 31, 3-(3-(2-((4-nitrobenzyl)amino)ethyl)ureido) benzenesulfonamide], the Ki is 168 nM in assay [1], 60.7 nM in assay [2], 2320 nM in assay [3] and 5850 nM in assay [4].
For `CN(C)c1ccc(CNCCNC(=O)Nc2cccc(S(N)(=O)=O)c2)cc1` [compound 32, 3-(3-(2-((4-(dimethylamino)benzyl)amino)ethyl)ureido) benzenesulfonamide], the Ki in assay [1] was found to be 565 nM; in assay [2], 78 nM; in assay [3] it was 1200 nM; in assay [4], 8910 nM.
Take `COc1cc([N+](=O)[O-])ccc1CNCCNC(=O)Nc1cccc(S(N)(=O)=O)c1` [compound 33, 3-(3-(2-((2-methoxy-4-nitrobenzyl)amino)ethyl)ureido)benzenesulfonamide]: the Ki in assay [1] was 90.2 nM; in assay [2], 53.1 nM; in assay [3], 2610 nM; in assay [4] it was greater than 10000 nM.
As for `NS(=O)(=O)c1cccc(NC(=O)NCCNCc2ccc(Br)cc2O)c1` [compound 34, 3-(3-(2-((4-bromo-2-hydroxybenzyl)amino)ethyl)ureido) benzenesulfonamide], the Ki in assay [1] was found to be 2.8 nM; in assay [2], 7.2 nM; in assay [3], 1920 nM; in assay [4] it was 654 nM.
With `NS(=O)(=O)c1cccc(NC(=O)NCCNCc2ccc(-c3ccccc3)cc2)c1` [compound 35, 3-(3-(2-(([1,1’-biphenyl]-4-ylmethyl)amino)ethyl)ureido) benzenesulfonamide], the Ki in assay [1] is 456 nM; in assay [5], greater than 10000 nM; in assay [2] it was 688 nM; in assay [4], greater than 10000 nM.
